Data published in ChEMBL document CHEMBL1152343, “2-Arylbenzofuran Derivatives from Morus cathayana” (J Nat Prod, 2009).
Values after ≈ are worked out from the molar mass of the structure shown.

Legend:
Assay type in all cases: functional, cell-based
[1] = test system: A2780; assay: Cytotoxicity against human A2780 […] by MTT assay
[2] = test system: HCT-8; assay: Cytotoxicity against human HCT8 […] by MTT assay
[3] = test system: A549; assay: Cytotoxicity against human A549 […] by MTT assay
[4] = test system: BGC-823; assay: Cytotoxicity against human BGC823 […] by MTT assay

Row | Compound | IC50 [1] [µg/mL] | IC50 [2] [µg/mL] | IC50 [3] [µg/mL] | IC50 [4] [µg/mL]
1 | CC(C)=CCc1c(O)cc(O)cc1-c1cc2ccc(O)c(CC=C(C)C)c2o1 [CATHAFURAN B] | 6.27 (≈ 16.6 µM) | 6.27 (≈ 16.6 µM) | 6.27 (≈ 16.6 µM) | 6.27 (≈ 16.6 µM)
2 | CC(C)=CCc1c(O)cc2c(c1-c1cc3ccc(O)cc3o1)C=CC(C)(C)O2 [CATHAFURAN C] | 7.61 (≈ 20.2 µM) | 7.33 (≈ 19.5 µM) |  | 
3 | O=c1[nH]cc(F)c(=O)[nH]1 [FLUOROURACIL] | 0.2 (≈ 1.54 µM) | 0.2 (≈ 1.54 µM) | 0.2 (≈ 1.54 µM) | 0.2 (≈ 1.54 µM)
